In paper PMC11971462, “Generation and validation of a novel multitarget small molecule in glioblastoma” (Cell Death & Disease, 2025):

System: GNS166 cells
Experiment: Label-free proteomics differential expression
Type: cell-based, human
Experimental: Proteomic studies were performed by the Proteomics Facility of the CIC bioGUNE by label-free relative quantification on nLC MS/MS. […] In both approaches, the top 20 enriched terms were plotted and the pathways were clustered using divisive hierarchical clustering based on pairwise Jaccard distances.

C#CCN(Cc1cc2cc(OCCCN3CCCCC3)ccc2n1S(=O)(=O)c1ccccc1)C(=O)CCCCCCC(=O)NO [DDI]
LogFC STAU1_HUMAN (protein O95793): -0.5064
LogFC BPNT1_HUMAN (protein O95861 GN=BPNT1): 0.8709
Direction MBD3_HUMAN (protein O95983): Down
LogFC MBD3_HUMAN (protein O95983): -1.39
Direction ZBED1_HUMAN (protein O96006): Down
LogFC ZBED1_HUMAN (protein O96006): -1.855
Direction NSD2_HUMAN (protein O96028): Down
LogFC NSD2_HUMAN (protein O96028): -2.1573
LogFC TPC2B_HUMAN (protein P0DI82 GN=TRAPPC2B): 1.676
LogFC HS71A_HUMAN (protein P0DMV8 GN=HSPA1A): 0.6446
LogFC AL1A1_HUMAN (protein P00352 GN=ALDH1A1): 1.798
Direction EGFR_HUMAN (protein P00533): Down
LogFC EGFR_HUMAN (protein P00533): -0.977
LogFC TPA_HUMAN (protein P00750 GN=PLAT): 1.254
LogFC CAH2_HUMAN (protein P00918 GN=CA2): 2.905
LogFC LDLR_HUMAN (protein P01130 GN=LDLR): -1.436
LogFC TFR1_HUMAN (protein P02786 GN=TFRC): 0.6801
LogFC TRFE_HUMAN (protein P02787 GN=TF): 1.471
LogFC FRIL_HUMAN (protein P02792 GN=FTL): 2.1013
LogFC GLCM_HUMAN (protein P04062 GN=GBA): 1.34
Direction ANXA1_HUMAN (protein P04083): Down
LogFC ANXA1_HUMAN (protein P04083): -0.1864
LogFC OAT_HUMAN (protein P04181 GN=OAT): 0.8669
LogFC TBB4A_HUMAN (protein P04350 GN=TUBB4A): 2.022
LogFC AT1B1_HUMAN (protein P05026 GN=ATP1B1): 0.7382
LogFC CHLE_HUMAN (protein P06276 GN=BCHE): 1.793
LogFC GELS_HUMAN (protein P06396 GN=GSN): 1.338
Direction CDK1_HUMAN (protein P06493): Down
LogFC CDK1_HUMAN (protein P06493): -2.828
LogFC H10_HUMAN (protein P07305 GN=H1-0): 2.4177
Direction CAN1_HUMAN (protein P07384): Down
LogFC CAN1_HUMAN (protein P07384): -0.5477
LogFC HEXB_HUMAN (protein P07686 GN=HEXB): 2.1461
LogFC TNR16_HUMAN (protein P08138 GN=NGFR): 4.357
LogFC ASNS_HUMAN (protein P08243 GN=ASNS): 0.9749
LogFC ANXA5_HUMAN (protein P08758 GN=ANXA5): 0.5383
Direction SRP19_HUMAN (protein P09132): Down
LogFC SRP19_HUMAN (protein P09132): -0.7201
Direction HMGB1_HUMAN (protein P09429): Down
LogFC HMGB1_HUMAN (protein P09429): -0.3836
LogFC SPRC_HUMAN (protein P09486 GN=SPARC): 0.9159
Direction DPOLA_HUMAN (protein P09884): Down
LogFC DPOLA_HUMAN (protein P09884): -0.7754
LogFC TZAP_HUMAN (protein P10074 GN=ZBTB48): 0.6846
LogFC LYAG_HUMAN (protein P10253 GN=GAA): 1.719
LogFC RRAS_HUMAN (protein P10301 GN=RRAS): 1.8337
Direction COT1_HUMAN (protein P10589): Down
LogFC COT1_HUMAN (protein P10589): -2.0511
LogFC PPGB_HUMAN (protein P10619 GN=CTSA): 1.238
LogFC LAMC1_HUMAN (protein P11047 GN=LAMC1): 1.296
LogFC MTAP2_HUMAN (protein P11137 GN=MAP2): 1.918
Direction GTR1_HUMAN (protein P11166): Down
LogFC GTR1_HUMAN (protein P11166): -1.063
LogFC GTR3_HUMAN (protein P11169 GN=SLC2A3): 0.7017
Direction PYGM_HUMAN (protein P11217): Down
LogFC PYGM_HUMAN (protein P11217): -1.18
LogFC LAMP1_HUMAN (protein P11279 GN=LAMP1): 0.9125
Direction TOP2A_HUMAN (protein P11388): Down
LogFC TOP2A_HUMAN (protein P11388): -2.075
LogFC G6PD_HUMAN (protein P11413 GN=G6PD): 0.8016
LogFC PRPS2_HUMAN (protein P11908 GN=PRPS2): 1.0339
Direction COBA1_HUMAN (protein P12107): Down
LogFC COBA1_HUMAN (protein P12107): -0.989
Direction CO6A1_HUMAN (protein P12109): Down
LogFC CO6A1_HUMAN (protein P12109): -2.398
LogFC LAMP2_HUMAN (protein P13473 GN=LAMP2): 0.7741
LogFC MTDC_HUMAN (protein P13995 GN=MTHFD2): 1.415
LogFC CBPM_HUMAN (protein P14384 GN=CPM): 1.371
Direction CCNB1_HUMAN (protein P14635): Down
LogFC CCNB1_HUMAN (protein P14635): -2.713
LogFC ARSA_HUMAN (protein P15289 GN=ARSA): 0.8733
LogFC NQO2_HUMAN (protein P16083 GN=NQO2): 1.439
Direction ITB4_HUMAN (protein P16144): Down
LogFC ITB4_HUMAN (protein P16144): -1.613
LogFC CBR1_HUMAN (protein P16152 GN=CBR1): 1.143
Direction ANK1_HUMAN (protein P16157): Down
LogFC ANK1_HUMAN (protein P16157): -1.996
Direction GCFC2_HUMAN (protein P16383): Down
LogFC GCFC2_HUMAN (protein P16383): -2.09
LogFC SYN1_HUMAN (protein P17600 GN=SYN1): 2.1979
Direction CAN2_HUMAN (protein P17655): Down
LogFC CAN2_HUMAN (protein P17655): -0.5036
LogFC DDX5_HUMAN (protein P17844 GN=DDX5): -0.6799
Direction PFKAL_HUMAN (protein P17858): Down
LogFC PFKAL_HUMAN (protein P17858): -0.5357
Direction ITB5_HUMAN (protein P18084): Down
LogFC ITB5_HUMAN (protein P18084): -1.897
Direction SDC1_HUMAN (protein P18827): Down
LogFC SDC1_HUMAN (protein P18827): -2.102
Direction PLCG1_HUMAN (protein P19174): Down
LogFC PLCG1_HUMAN (protein P19174): -1.036
LogFC RXRA_HUMAN (protein P19793 GN=RXRA): -2.086
Direction MX1_HUMAN (protein P20591): Down
LogFC MX1_HUMAN (protein P20591): -3.492
LogFC FILA_HUMAN (protein P20930 GN=FLG): 2.48
Direction RASA1_HUMAN (protein P20936): Down
LogFC RASA1_HUMAN (protein P20936): -0.7321
LogFC VATB2_HUMAN (protein P21281 GN=ATP6V1B2): 1.09
LogFC VATC1_HUMAN (protein P21283 GN=ATP6V1C1): 0.7781
LogFC AOFA_HUMAN (protein P21397 GN=MAOA): 0.8861
LogFC ACOC_HUMAN (protein P21399 GN=ACO1): 0.9989
LogFC TGM2_HUMAN (protein P21980 GN=TGM2): 2.278
Direction PTPRE_HUMAN (protein P23469): Down
LogFC PTPRE_HUMAN (protein P23469): -2.558
Direction RIR1_HUMAN (protein P23921): Down
LogFC RIR1_HUMAN (protein P23921): -1.151
Direction MCM3_HUMAN (protein P25205): Down
LogFC MCM3_HUMAN (protein P25205): -0.4173
LogFC MOES_HUMAN (protein P26038 GN=MSN): -0.6643
Direction DNMT1_HUMAN (protein P26358): Down
LogFC DNMT1_HUMAN (protein P26358): -0.8972
Direction HMGB2_HUMAN (protein P26583): Down
LogFC HMGB2_HUMAN (protein P26583): -0.4752
Direction SYVC_HUMAN (protein P26640): Down
LogFC SYVC_HUMAN (protein P26640): -0.2125
